The values that follow come from ChEMBL document CHEMBL1201862, “PubChem BioAssay data set” (2004).

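How tested: cells in 96-well plates exposed to compound for 48 hours at five concentrations. GI50 = concentration required for 50% inhibition of growth.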 Active and inactive are the calls of the source. Rule as the data show it: active = GI50 up to about 1.1 µM and inactive = higher.

Some test systems named below: Hs-578T; A498; NCI/ADR-RES; KM12; EKVX; BT-549; SF-295; MCF7; OVCAR-8; UO-31; SN12C; PC-3; A549; HOP-62; CAKI-1; MDA-MB-435; U-251; HL-60; OVCAR-4.
Holding throughout (assay): growth of human tumour cells (NCI), 48 h

On to `Nc1nc(SCc2ccccn2)c2ncn(C3CCCC3)c2n1`, for which the GI50 was 25.9 µM (inactive) in the experiment on Hs-578T; > 100 µM (inactive) in the experiment with A498; > 100 µM (inactive) with NCI/ADR-RES; > 100 µM (inactive) with KM12; > 100 µM (inactive) in the experiment with EKVX; > 100 µM (inactive) in the experiment with BT-549. For the same compound, the GI50 was > 100 µM (inactive) in the experiment with SF-295; > 100 µM (inactive) in the experiment with MCF7; > 100 µM (inactive) in the experiment with OVCAR-8; 15 µM (inactive) with UO-31; > 100 µM (inactive) in the experiment with SN12C; > 100 µM (inactive) in the experiment on PC-3. The GI50 in the experiment on A549 was > 100 µM (inactive); in the experiment with HOP-62, > 100 µM (inactive); in the experiment on CAKI-1, > 100 µM (inactive); in the experiment on MDA-MB-435, > 100 µM (inactive); in the experiment with U-251, > 100 µM (inactive); in the experiment with HL-60 it was 97.3 µM (inactive). Further, the GI50 in the experiment with OVCAR-4 was > 100 µM (inactive).

Consider `c1cncc(CSc2ncnc3[nH]cnc23)c1`, for which the GI50 in the experiment with Hs-578T, in the experiment with A498, in the experiment with NCI/ADR-RES, with KM12, in the experiment on EKVX and in the experiment with BT-549 was > 100 µM (inactive) in each case. Also, the GI50 with SF-295, in the experiment with MCF7, with OVCAR-8, with UO-31, in the experiment on SN12C and with PC-3 was > 100 µM (inactive) throughout. Besides, the GI50 with A549, in the experiment on HOP-62, in the experiment with CAKI-1, with MDA-MB-435, with U-251 and with HL-60 was > 100 µM (inactive) each time. Also, the GI50 in the experiment with OVCAR-4 was > 100 µM (inactive).

In the case of `CC(C)=NN/C(=N\c1ccc(Cl)cc1)NS(=O)(=O)c1ccc(C)cc1`, the GI50 with Hs-578T was > 100 µM (inactive); with A498, 33 µM (inactive); in the experiment on NCI/ADR-RES, 69.3 µM (inactive); with KM12, 85.7 µM (inactive); with EKVX, 52.6 µM (inactive); in the experiment with BT-549, > 100 µM (inactive). In addition, the GI50 with SF-295 was 35.2 µM (inactive); with MCF7, 58.5 µM (inactive); with OVCAR-8 it was > 100 µM (inactive); in the experiment with UO-31, > 100 µM (inactive); in the experiment on SN12C, 84.5 µM (inactive); in the experiment on PC-3, 41.2 µM (inactive). Besides, the GI50 in the experiment on A549 was 62.4 µM (inactive); with HOP-62 it was 69 µM (inactive); in the experiment on CAKI-1, 62.2 µM (inactive); in the experiment on MDA-MB-435 it was 92.9 µM (inactive); with U-251, 96.8 µM (inactive); with HL-60 it was 97.5 µM (inactive). Also, in the experiment with OVCAR-4, the GI50 was 51.1 µM (inactive).

In the case of `C/C=C/[C@@H]1O[C@H](CC#C[Si](C)(C)C)[C@@]2(C=O)C(C)=CC[C@H](C(C)C)[C@@H]12`, the GI50 in the experiment with Hs-578T was 33.3 µM (inactive); in the experiment on A498, 29.6 µM (inactive); in the experiment with NCI/ADR-RES it was 23.3 µM (inactive); in the experiment on KM12, 17.7 µM (inactive); in the experiment on EKVX it was 18.8 µM (inactive); with BT-549, 22.4 µM (inactive). Moreover, the GI50 in the experiment with SF-295 was 21.9 µM (inactive); in the experiment with MCF7, 22.5 µM (inactive); in the experiment on OVCAR-8, 23.4 µM (inactive); with UO-31, 1.61 µM (inactive); in the experiment on SN12C, 17.7 µM (inactive); with PC-3, 15.4 µM (inactive). Further, the GI50 in the experiment on A549 is 23.1 µM (inactive); in the experiment on HOP-62, 25.4 µM (inactive); with CAKI-1 it was 1.94 µM (inactive); with MDA-MB-435, 20 µM (inactive); in the experiment on U-251, 17.3 µM (inactive); in the experiment on HL-60, 3.81 µM (inactive). Also, in the experiment with OVCAR-4, the GI50 was 19.3 µM (inactive).

Consider `Cc1ccc(N2C3=C(CC4=C2CC(C)(C)CC4=O)C(=O)CC(C)(C)C3)cc1`, for which the GI50 in the experiment on Hs-578T was 20.6 µM (inactive); with A498, > 100 µM (inactive); in the experiment with NCI/ADR-RES, > 100 µM (inactive); in the experiment with KM12, > 100 µM (inactive); in the experiment with EKVX, > 100 µM (inactive); in the experiment with BT-549 it was > 100 µM (inactive). The GI50 in the experiment with SF-295, with MCF7, with OVCAR-8, in the experiment with UO-31, in the experiment with SN12C and in the experiment on PC-3 was > 100 µM (inactive) in each case. Further, the GI50 in the experiment on A549, in the experiment on HOP-62, in the experiment on CAKI-1, with MDA-MB-435, in the experiment on U-251 and in the experiment on HL-60 was > 100 µM (inactive) throughout. Moreover, the GI50 in the experiment on OVCAR-4 is > 100 µM (inactive).

`COc1ccc(C(=O)c2ccc(-n3c4ccccc4c4ccc5c(c43)C(=O)C=CC5=O)cc2)cc1`: the GI50 in the experiment with Hs-578T is 1.69 µM (inactive); in the experiment on A498, 1.58 µM (inactive); with NCI/ADR-RES, 2.62 µM (inactive); in the experiment on KM12, 3.68 µM (inactive); with EKVX, 1.86 µM (inactive); in the experiment with BT-549, 3.21 µM (inactive). The GI50 in the experiment on SF-295 was 5.43 µM (inactive); with MCF7 it was 0.855 µM (active); in the experiment with OVCAR-8 it was 1.81 µM (inactive); in the experiment with UO-31, 0.52 µM (active); with SN12C, 1.45 µM (inactive); in the experiment with PC-3, 1.5 µM (inactive). For the same compound, the GI50 with A549 is 3.17 µM (inactive); with HOP-62, 12.5 µM (inactive); with CAKI-1, 0.164 µM (active); with MDA-MB-435 it was 1.39 µM (inactive); with U-251 it was 1.69 µM (inactive); in the experiment on HL-60 it was 0.495 µM (active). For the same compound, the GI50 with OVCAR-4 is 2.55 µM (inactive).

Consider `CCN(CC)C(=S)N/N=C(/c1ccccc1)c1ccccn1`, for which the GI50 with Hs-578T was > 37.6 µM (inactive); with A498 it was 0.311 µM (active); with NCI/ADR-RES, 0.27 µM (active); with KM12, 0.0942 µM (active); in the experiment with EKVX, 0.583 µM (active); with BT-549, 0.471 µM (active). In addition, the GI50 was 0.342 µM (active) in the experiment on SF-295; 0.0867 µM (active) in the experiment with MCF7; 0.0362 µM (active) in the experiment on OVCAR-8; 0.459 µM (active) in the experiment on UO-31; 0.214 µM (active) with SN12C; 0.212 µM (active) in the experiment with PC-3. Moreover, the GI50 was 0.349 µM (active) with A549; 0.292 µM (active) in the experiment with HOP-62; 0.805 µM (active) in the experiment with CAKI-1; 0.705 µM (active) with MDA-MB-435; 0.0995 µM (active) in the experiment on U-251; 0.264 µM (active) with HL-60. The GI50 in the experiment on OVCAR-4 is 0.504 µM (active).

`COc1cccc2c(=O)c3c(O)c4cc(N(C)C)ccc4c(OC(C)=O)c3oc12`: the GI50 with Hs-578T is 14.3 µM (inactive); with A498 it was 21 µM (inactive); in the experiment on NCI/ADR-RES, 21.7 µM (inactive); with KM12 it was 13 µM (inactive); in the experiment on EKVX it was 12.5 µM (inactive); in the experiment with BT-549, 10.2 µM (inactive). The GI50 in the experiment on SF-295 was 25.1 µM (inactive); in the experiment on MCF7 it was 14.5 µM (inactive); in the experiment on OVCAR-8 it was 15.7 µM (inactive); in the experiment with UO-31 it was 17.7 µM (inactive); in the experiment with SN12C it was 12.9 µM (inactive); with PC-3, 17.6 µM (inactive). Besides, the GI50 is 26.1 µM (inactive) in the experiment on A549; 15 µM (inactive) in the experiment with HOP-62; 5.24 µM (inactive) in the experiment with CAKI-1; 12.6 µM (inactive) in the experiment on MDA-MB-435; 14 µM (inactive) with U-251; 3.96 µM (inactive) with HL-60. Further, in the experiment on OVCAR-4, the GI50 is 13.5 µM (inactive).

As for `NC1=C(Cl)C(=O)c2c(O)ccc(O)c2C1=O`, the GI50 in the experiment with Hs-578T is 8.3 µM (inactive); with A498, 14.1 µM (inactive); in the experiment on NCI/ADR-RES, 3.61 µM (inactive); in the experiment on KM12, 2.92 µM (inactive); in the experiment with EKVX it was 12 µM (inactive); in the experiment with BT-549 it was 1.93 µM (inactive). Moreover, the GI50 was 2.1 µM (inactive) with SF-295; 1.55 µM (inactive) in the experiment with MCF7; 3.82 µM (inactive) with OVCAR-8; 9.06 µM (inactive) with UO-31; 3.28 µM (inactive) with SN12C; 3.47 µM (inactive) in the experiment on PC-3. Besides, the GI50 in the experiment on A549 was 2.2 µM (inactive); with HOP-62 it was 5.36 µM (inactive); in the experiment on CAKI-1, 16.5 µM (inactive); in the experiment with MDA-MB-435, 2.01 µM (inactive); in the experiment with U-251, 4.12 µM (inactive); in the experiment with HL-60, 2.55 µM (inactive). Also, the GI50 in the experiment with OVCAR-4 was 4.11 µM (inactive).

For `O=C(CSc1nc2ccccc2c(=O)n1-c1ccccc1)N/N=C1\C(=O)Nc2ccc(Br)cc21`, the GI50 is 7.05 µM (inactive) in the experiment on Hs-578T; 6.21 µM (inactive) in the experiment with A498; 2.99 µM (inactive) in the experiment on NCI/ADR-RES; 2.44 µM (inactive) in the experiment on KM12; 2.74 µM (inactive) in the experiment with EKVX; 10.3 µM (inactive) with BT-549. Further, the GI50 in the experiment with SF-295 is 2.81 µM (inactive); in the experiment with MCF7 it was 3.49 µM (inactive); in the experiment with OVCAR-8, 1.85 µM (inactive); in the experiment with UO-31, 2.28 µM (inactive); with SN12C, 1.71 µM (inactive); in the experiment with PC-3, 1.84 µM (inactive). The GI50 in the experiment with A549 was 2.3 µM (inactive); in the experiment on HOP-62, 2.59 µM (inactive); in the experiment with CAKI-1 it was 2.48 µM (inactive); with MDA-MB-435, 5.71 µM (inactive); with U-251, 1.82 µM (inactive); in the experiment on HL-60, 3.21 µM (inactive). The GI50 in the experiment on OVCAR-4 is 2.58 µM (inactive).
